Data from patent US9181253B2 (The United States of America, as represented by the …, priority 2008, dated 2015).
Read-outs that look alike come from different tables or passages of the source. Marks after values point to notes of the source that are not given here.

Key:
human A3 receptor = human A3 receptor (Homo sapiens (Human), UniProt P0DMS8); assay: Binding assay at the human A3 receptor (Example 2); conditions: CHO cells expressing human A3AR; radioligand [125I]I-AB-MECA; n = 3-5; read-out: Affinity (Ki, nM) A3
human A3 receptor, sequence (P0DMS8 whole entry): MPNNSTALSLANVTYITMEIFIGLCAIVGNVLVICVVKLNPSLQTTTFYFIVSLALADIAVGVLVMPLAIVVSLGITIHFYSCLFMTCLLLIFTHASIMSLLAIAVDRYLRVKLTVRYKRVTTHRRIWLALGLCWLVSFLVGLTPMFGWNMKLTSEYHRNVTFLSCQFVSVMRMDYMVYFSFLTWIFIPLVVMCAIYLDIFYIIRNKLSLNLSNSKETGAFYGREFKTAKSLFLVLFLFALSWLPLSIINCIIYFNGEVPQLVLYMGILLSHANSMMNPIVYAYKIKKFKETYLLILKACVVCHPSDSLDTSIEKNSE

human A3AR [1] = target: T1, human A3AR (Homo sapiens (Human), UniProt P0DMS8); assay: [35S]GTPγS binding assay, membranes of CHO cells expressing human A3AR; assay type: biochemical
T1 sequence (P0DMS8 whole entry): as above

human A3AR [2] = target: T1, human A3AR; assay: Cyclic AMP accumulation / adenylate cyclase assay, CHO cells expressing hA3AR; assay type: cell-based
hA1AR [3] = target: T2, hA1AR (Homo sapiens (Human), UniProt P30542); assay: Radioligand membrane binding at hA1AR (Example 6)
T2 sequence (P30542 whole entry): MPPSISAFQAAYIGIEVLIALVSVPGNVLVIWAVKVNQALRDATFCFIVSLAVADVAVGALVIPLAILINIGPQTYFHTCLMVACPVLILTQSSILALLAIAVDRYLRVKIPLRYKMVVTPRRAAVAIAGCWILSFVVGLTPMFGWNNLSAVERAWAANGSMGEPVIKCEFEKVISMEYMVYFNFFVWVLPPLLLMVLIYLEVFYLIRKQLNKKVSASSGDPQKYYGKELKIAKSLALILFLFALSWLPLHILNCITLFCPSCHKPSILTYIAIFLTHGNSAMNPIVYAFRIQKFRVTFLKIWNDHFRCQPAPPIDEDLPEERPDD
Protocol: (§1) In addition, 800 μg/mL Geneticin and 500 μg/mL hygromycin were added to the A2A media and to the A1 and A3 media, respectively. […] The concentration of protein was determined using a BCA Protein Assay Kit from Pierce Biotechnology (Rockford, Ill.).
(§2) Radioligand binding assays at A1, A2A, and A3ARs were performed according to the procedures described previously.
(§3) All of the filters were washed 3 times with Tris-HCl, pH 7.5. […] Filters for A3AR binding were counted using a PerkinElmer Cobra II γ-counter.
(§4) Binding and functional parameters were calculated using Prism 5.0 software (GraphPAD, San Diego, Calif., USA). IC50 values obtained from competition curves were converted to Ki values using the Cheng-Prusoff equation. Data were expressed as mean±standard error.

hA2AAR [4] = target: T3, hA2AAR (Homo sapiens (Human), UniProt P29274); assay: Radioligand membrane binding at hA2AAR (Example 6); conditions: HEK293 cells expressing hA2AAR; [3H]CGS21680; n = 3-5; read-out: Affinity Ki, nM A2A
T3 sequence (P29274 whole entry): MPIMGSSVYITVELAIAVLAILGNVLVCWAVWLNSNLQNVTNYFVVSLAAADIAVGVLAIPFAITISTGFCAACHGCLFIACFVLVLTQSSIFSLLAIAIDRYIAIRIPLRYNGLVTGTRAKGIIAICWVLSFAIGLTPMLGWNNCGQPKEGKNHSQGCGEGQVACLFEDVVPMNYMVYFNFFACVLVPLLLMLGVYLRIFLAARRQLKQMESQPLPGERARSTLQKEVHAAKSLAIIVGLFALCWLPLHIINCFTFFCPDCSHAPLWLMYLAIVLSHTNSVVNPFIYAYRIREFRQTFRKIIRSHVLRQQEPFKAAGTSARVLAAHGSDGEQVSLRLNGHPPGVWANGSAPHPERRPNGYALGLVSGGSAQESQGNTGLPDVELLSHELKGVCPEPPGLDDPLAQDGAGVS
Protocol: as §1, §2, §3, §4

hA1AR [5] = target: T2, hA1AR; assay: A1AR functional assay, inhibition of forskolin-stimulated cyclic AMP production in AR-transfected CHO cells; assay type: cell-based; conditions: FIG. 12, compared to full agonist NECA
[6] = system: seizures induced by 6 Hz corneal stimulation in mice; assay: 6 Hz minimal clonic seizure test; assay type: in vivo
Protocol: (§5) For the MES and 6 Hz tests, a drop of anesthetic/electrolyte solution (0.5% tetracaine hydrochloride in 0.9% saline) was applied to the eyes of each animal prior to placement of the corneal electrodes. The electrical stimulus in the MES test was 50 mA, 60 Hz, for mice. Abolition of the hindleg tonic extensor component of the seizure was used as the endpoint.
The ability of the test substance to prevent seizures induced by 6 Hz corneal stimulation (32 mA, 3 sec duration) in mice was evaluated at a convulsive current that evokes a seizure in 97% of the population tested (CC97). Six Hz seizures are characterized by a minimal clonic phase that is followed by stereotyped, automatistic behaviors described originally as being similar to the aura of human patients with partial seizures. Toman, J. E. et al., Tex. Rep.
Animals not displaying this behavior were considered protected.

MES seizures in mice = assay: Maximal electroshock (MES) seizure test; assay type: in vivo; conditions: i.p.
Protocol: The electrical tests used were the maximal electroshock (MES) seizure test, the 6 Hz minimal clonic seizure test, and the corneal kindled mouse test. The chemical test was the s.c. metrazol seizure tests. Time of peak effect (TPE) is deduced from data generated in initial qualitative test procedures. Five groups of 4 animals each are administered the test compound, and each group is tested at one of five different time intervals: ¼, ½, 1, 2 and 4 h. The time point at which the compound produces the most activity/toxicity was chosen as TPE.
as §5

[7] = system: s.c. metrazol seizures in mice; assay: s.c. metrazol (scMET) seizure test; assay type: in vivo; conditions: i.p.
Source text: In vivo anticonvulsant activity was established by both electrical and chemoconvulsant seizure tests which have been described previously. White, H. S., et al., Ital. J. Neurol. […] White, H. S. et al., Antiepileptic Drugs ([…].; Meldrum, B. S. ed), 1995, pp 99-110, Raven Press, New York.; and Smith, M., et al., Neurotherapeutics 2007, 4, 12-17. The electrical tests used were the maximal electroshock (MES) seizure test, the 6 Hz minimal clonic seizure test, and the corneal kindled mouse test. The chemical test was the s.c. metrazol seizure tests. Time of peak effect (TPE) is deduced from data generated in initial qualitative test procedures. […] The time point at which the compound produces the most activity/toxicity was chosen as TPE.

corneal kindled mice = assay: Corneal-kindled mouse model of partial seizures; assay type: in vivo; conditions: qualitative test, 3 mg/kg, 1 hour post injection, n=4
Source text: Mice were kindled according to the methods described by […] and […]; […] Louis, Mo.) was applied to the cornea to ensure local anesthesia and good electrical conductivity. Stimulations were at least four hours apart. […] See Racine, R., Electroencephalogr. Clin. Neurophysiol. 1972, pp. 281-294. At the completion of the kindling acquisition, mice were permitted at least a 3-day stimulation-free period prior to any drug testing. Mice were stimulated once the day before drug testing to ensure they had achieved and maintained a kindled state. On the day of the drug study, corneal kindled mice (n=4, or 8) received a single i.p. dose of test compound. Mice were challenged with the corneal kindling stimulus of 3 mA for 3 seconds at TPE after test compound administration. Mice were scored as protected (seizure score of ≦3) or not protected, (seizure score ≧4) based on the Racine scoring.

in vivo = conditions: mouse, ip
mice = assay: Minimal behavioral toxicity test, rotorod procedure; conditions: i.p.
hA1AR [8] = target: T2, hA1AR; conditions: values from literature references; read-out: Affinity Ki, nM A1; cited from earlier work
hA2AAR [9] = target: T3, hA2AAR; conditions: values from literature references; read-out: Affinity Ki, nM A2A; cited from earlier work
hA3AR = hA3AR (Homo sapiens (Human), UniProt P0DMS8); conditions: values from literature references; read-out: Affinity Ki, nM A3; cited from earlier work
hA3AR, sequence (P0DMS8 whole entry): as the sequence (P0DMS8 whole entry) above

Compound: O[C@@H]1[C@H](O)[C@@H]2C[C@@H]2[C@H]1n1cnc2c(NCc3cccc(I)c3)nc(Cl)nc21 [Compound 7b, (1′R,2′R,3′S,4′R,5′S)-4′-[2-Chloro-6-(3-iodobenzylamino)purine]-2′,3′-O-dihydroxybicyclo-[3.1.0]hexane]
- Ki (human A3 receptor): 1.44 ± 0.6 nM
- IC50 (human A3AR [1]; read-out: IC50, inhibition of [35S]GTPγS binding stimulated by NECA, stimulation by 1 μM NECA): 0.0298 µM
- % Efficacy A3 (human A3AR [1]; stimulation measured by [35S]GTPγS binding assay): 1.0 ± 3.2%
- EC50 (human A3AR [2]; partial agonism, read-out: EC50 at A3AR, cAMP assay): 0.012 ± 0.001 µM
- Kb (human A3AR [2]; right shifts of response curves in the inhibition of adenylate cyclase by NECA, read-out: KB value, Schild analysis): 0.0089 µM

Compound: O[C@@H]1[C@H](O)[C@@H]2C[C@@H]2[C@H]1n1cnc2c(NC(C3CC3)C3CC3)nc(Cl)nc21 [Compound 121, (1R,2R,3S,4R,5S)-4-(2-Chloro-6-(dicyclopropylmethylamino)-9H-purin-9-yl)bicyclo[3.1.0]hexane-2,3-diol]
- times less potent at the A1AR in in vitro binding compared to 235b (hA1AR [3]): ~40 times
- Ki (hA1AR [3]; CHO cells expressing hA1AR, [3H]R-PIA, n = 3-5, read-out: Affinity Ki, nM A1): 47.9 ± 10.5 nM
- Ki (hA2AAR [4]): 3950 ± 410 nM
- agonist character at A1 AR, concentration-response curve of inhibition of cyclic AMP production (hA1AR [5]): full agonist
- ED50 ([6]; Mus musculus, ip, mice, i.p., measured at 1 h post injection, read-out: 6 Hz model ED50): 2.74 mg/kg
- ED50 in antiseizure models, times less potent compared to 235b ([6]; mouse, in vivo): about 20 times
- MES model, number of animals protected from convulsions (MES seizures in mice; 3 mg/kg): 1 out of 4
- scMET model, number of animals protected from convulsions ([7]; 3 mg/kg): No protection
- corneal kindled mouse model, animals protected (corneal kindled mice): all animals (n=4) were protected
- TD50 (in vivo): > 10 mg/kg
- Behavioral toxicity TD50 (mice): >10 mg/kg

Compound: NCCNC(=O)Cc1ccc(NC(=O)Cc2ccc(Nc3ncnc4c3ncn4[C@@H]3O[C@H](CO)[C@@H](O)[C@H]3O)cc2)cc1 [Compound 237]
- 6 Hz model ED50 ([6]; mice, i.p., measured at 1 h post injection): 0.03^c mg/kg
- MES model, number of animals protected from convulsions (MES seizures in mice; 2 mg/kg): 4 out of 8
- scMET model, number of animals protected from convulsions ([7]; 1 mg/kg): 5 out of 8
- Ki (hA1AR [8]): 10.4 ± 3.8 nM
- Ki (hA2AAR [9]): 370 ± 100 nM
- Ki (hA3AR): 12.4 ± 4.1 nM
- Behavioral toxicity TD50 (mice; measured at 4 h post injection): 0.14^d mg/kg
